Measured values from ChEMBL document CHEMBL5036325, “Novel Biphenyl Pyridines as Potent Small-Molecule Inhibitors Targeting the Programmed Cell Death-1/Programmed Cell Death-Ligand 1 Interaction” (J Med Chem, 2021).
The source made the active and inactive calls. The rule behind the calls is not given here.

What was measured:
[1] = molecular target: Programmed cell death protein 1/Programmed cell death 1 ligand 1 (Homo sapiens, UniProt Q9NZQ7); experiment: Inhibition of PD-1/PD-L1 interaction (unknown origin) preincubated with PD-L1 for 15 mins followed by PD-1 addition measured after 90 mins by TR-FRET assay; assay type: protein-complex assay
Programmed cell death protein 1/Programmed cell death 1 ligand 1, sequence (Q15116 whole entry): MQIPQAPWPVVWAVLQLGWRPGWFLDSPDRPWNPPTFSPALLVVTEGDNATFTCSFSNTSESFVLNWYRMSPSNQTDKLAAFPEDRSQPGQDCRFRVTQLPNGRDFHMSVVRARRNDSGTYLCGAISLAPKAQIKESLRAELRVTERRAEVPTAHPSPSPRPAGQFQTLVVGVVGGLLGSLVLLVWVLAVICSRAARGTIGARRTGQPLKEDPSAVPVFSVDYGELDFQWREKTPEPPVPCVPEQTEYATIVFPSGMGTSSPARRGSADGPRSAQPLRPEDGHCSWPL
Programmed cell death protein 1/Programmed cell death 1 ligand 1, sequence (Q9NZQ7 whole entry): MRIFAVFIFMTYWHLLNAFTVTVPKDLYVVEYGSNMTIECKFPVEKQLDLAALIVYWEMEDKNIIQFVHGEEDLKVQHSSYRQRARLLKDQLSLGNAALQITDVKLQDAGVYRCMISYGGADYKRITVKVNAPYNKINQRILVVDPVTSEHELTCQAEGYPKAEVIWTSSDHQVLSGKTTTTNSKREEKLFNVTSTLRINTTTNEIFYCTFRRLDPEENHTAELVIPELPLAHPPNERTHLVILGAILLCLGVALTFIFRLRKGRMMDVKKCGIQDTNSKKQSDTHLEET

MDA-MB-231 [2] = experiment: Antitumor immunity against human MDA-MB-231 cells co-cultured with CD3/CD28/CD2 T cell activator stimulated human PMBC assessed as cell death measuring lactate dehydrogenase release at 48.9 to 1500 nM measured for 12 hrs by PBMC killing assay; assay type: functional, cell-based; details: dose lower 48.9 nM, dose upper […]
MDA-MB-231 [3] = experiment: Antitumor immunity against human MDA-MB-231 cells co-cultured with CD3/CD28/CD2 T cell activator stimulated human PMBC assessed as cell death measuring lactate dehydrogenase release measured for 12 hrs by PBMC killing assay; assay type: functional, cell-based; details: MDA-MB-231, 12 h
MDA-MB-231 [4] = experiment: Antitumor immunity against human MDA-MB-231 cells co-cultured with CD3/CD28/CD2 T cell activator stimulated human PMBC assessed as cell death measuring lactate dehydrogenase release at 375 nM measured for 12 hrs by PBMC killing assay relative to control; assay type: functional
[5] = AUC (0 to t) in Sprague-Dawley rat at 3 mg/kg, iv measured upto 24 hrs by LC-MS/MS analysis; assay type: ADME, organism-based; parameters: route intravenous, dose 3 mg/kg, time <=24; details: in vivo
[6] = AUC (0 to t) in Sprague-Dawley rat at 25 mg/kg, po measured upto 24 hrs by LC-MS/MS analysis; assay type: ADME, organism-based; parameters: route oral, dose 25 mg/kg, time <=24; details: in vivo
[7] = Cmax in Sprague-Dawley rat at 3 mg/kg, iv measured upto 24 hrs by LC-MS/MS analysis; assay type: ADME, organism-based; parameters: route intravenous, dose 3 mg/kg, time <=24; details: in vivo
[8] = Cmax in Sprague-Dawley rat at 25 mg/kg, po measured upto 24 hrs by LC-MS/MS analysis; assay type: ADME, organism-based; parameters: route oral, dose 25 mg/kg, time <=24; details: in vivo
[9] = Half life in Sprague-Dawley rat at 3 mg/kg, iv measured upto 24 hrs by LC-MS/MS analysis; assay type: ADME, organism-based; details: in vivo
[10] = Half life in Sprague-Dawley rat at 25 mg/kg, po measured upto 24 hrs by LC-MS/MS analysis; assay type: ADME, organism-based; details: in vivo
[11] = Tmax in Sprague-Dawley rat at 3 mg/kg, iv measured upto 24 hrs by LC-MS/MS analysis; assay type: ADME, organism-based; details: in vivo
[12] = Tmax in Sprague-Dawley rat at 25 mg/kg, po measured upto 24 hrs by LC-MS/MS analysis; assay type: ADME, organism-based; details: in vivo
[13] = Clearance in Sprague-Dawley rat at 3 mg/kg, iv measured upto 24 hrs by LC-MS/MS analysis; assay type: ADME, organism-based; details: in vivo
[14] = Clearance in Sprague-Dawley rat at 25 mg/kg, po measured upto 24 hrs by LC-MS/MS analysis; assay type: ADME, organism-based; details: in vivo
[15] = Apparent volume of distribution in Sprague-Dawley rat at 3 mg/kg, iv measured upto 24 hrs by LC-MS/MS analysis; assay type: ADME, organism-based; details: in vivo, read-out: Vz
[16] = Apparent volume of distribution in Sprague-Dawley rat at 25 mg/kg, po measured upto 24 hrs by LC-MS/MS analysis; assay type: ADME, organism-based; details: in vivo
[17] = Oral bioavailability in Sprague-Dawley rat at 25 mg/kg measured upto 24 hrs by LC-MS/MS analysis; assay type: ADME, organism-based; details: in vivo
CT26 [18] = experiment: Antitumour activity against mouse CT26 cells implanted in po dosed BALB/c mouse assessed as increase in CD8+ cells in dissociated tumor tissue administered once daily for 2 weeks by flow cytometry analysis; assay type: functional, organism-based
CT26 [19] = experiment: Antitumor activity against mouse CT26 cells implanted in BALB/c mouse assessed as decrease in final tumor weight at 40 to 80 mg/kg/day, po measured once in 2 weeks relative to control; assay type: functional; parameters: scale not given: the % may be the effect or the level left; details: dose 40-80 mg/kg/day
CT26 [20] = experiment: Antitumor activity against mouse CT26 cells implanted in BALB/c mouse assessed as tumor growth inhibition at 40 to 80 mg/kg/day, po measured once in 2 weeks relative to control; assay type: functional; details: dose 40-80 mg/kg/day
CT26 [21] = experiment: Antitumour activity against mouse CT26 cells implanted in BALB/c mouse assessed as increased infiltration of CD8+ cell in tumor tissue at 40 to 80 mg/kg, po administered twice a day by immunohistochemical analysis; assay type: functional, organism-based; details: dose 40-80 mg/kg
CT26 [22] = experiment: Antitumour activity against mouse CT26 cells implanted in BALB/c mouse assessed as decrease in nucleus to cytoplasm ratio at 40 to 80 mg/kg, po administered twice a day by Hematoxylin and Eosin staining based analysis; assay type: functional, organism-based; details: dose 40-80 mg/kg
CT26 [23] = experiment: Antitumour activity against mouse CT26 cells implanted in BALB/c mouse assessed as induction of tumor shrinkage at 40 to 80 mg/kg, po administered twice a day by Hematoxylin and Eosin staining based analysis; assay type: functional, organism-based; details: dose 40-80 mg/kg
CT26 [24] = experiment: Antitumour activity against mouse CT26 cells implanted in BALB/c mouse assessed as inhibition of tumour cell growth at 40 to 80 mg/kg, po administered twice a day by Hematoxylin and Eosin staining based analysis; assay type: functional, organism-based; details: dose 40-80 mg/kg
CT26 [25] = experiment: Antitumour activity against mouse CT26 cells implanted in BALB/c mouse assessed as inhibition of tumour growth at 40 mg/kg, po measured for 14 days relative to control; assay type: functional; details: 336 h, time 14 day, read-out: TGI
[26] = Cytotoxicity against human PBMC cells assessed as cell viability at […] by LDH assay; assay type: cell-based; details: dose 1.5 µM
MDA-MB-231 [27] = experiment: Antitumor activity against human MDA-MB 231 cells assessed as cell viability at […] by LDH assay; assay type: functional, cell-based; details: dose 1.5 µM
[28] = Toxicity in BALB/c mouse implanted with mouse CT26 cells assessed as body weight change at 40 to 80 mg/kg/day, po measured once in 2 weeks; assay type: organism-based; details: in vivo, 336 h, dose 40-80 mg/kg/day
[29] = Toxicity in BALB/c mouse implanted with mouse CT26 cells assessed as mortality at 40 to 80 mg/kg/day, po measured once in 2 weeks; assay type: organism-based; details: in vivo, 336 h, dose 40-80 mg/kg/day
MDA-MB-231 [30] = experiment: Antitumor immunity against human MDA-MB-231 cells co-cultured with CD3/CD28/CD2 T cell activator stimulated human PMBC assessed as cell death measuring lactate dehydrogenase release at 500 nM measured for 12 hrs by PBMC killing assay relative to control; assay type: functional

Work on `COc1nc(-c2cccc(-c3ccc4c(c3)OCCO4)c2C)ccc1CNCCO` yielded an IC50 [1] of 7.9 nM.

Compound `COc1nc(-c2cccc(-c3ccc4c(c3)OCCO4)c2C)ccc1CNCCCO` has an IC50 [1] of 7.7 nM.

In the case of `COc1nc(-c2cccc(-c3ccccc3)c2C)ccc1CNCCO`, the IC50 [1] is reported as […], the Activity (MDA-MB-231 [2]) is reported as “Active” and the EC50 (MDA-MB-231 [3]) is reported as 100 nM. For the same compound, the Activity (MDA-MB-231 [4]) was 53%, the AUC(0-t) at 24 h [5] was 430 ng·h/mL and the AUC(0-t) at 24 h [6] was 787 ng·h/mL. It also gave a Cmax [7] of 1230 ng/mL, a Cmax [8] of 192 ng/mL and a half-life [9] of 4.2 h. For the same compound, the half-life [10] was 6.4 h, the Tmax [11] was 1.8 min and the Tmax [12] was 0.69 h. It also gave a clearance [13] of 192 mL/min/kg, a CL/F [14] of 480 mL/min/kg and a Vd [15] of 78.6 L/kg. The Vz [16] was 249.3 L/kg, the bioavailability [17] was 22% and the Activity (CT26 [18]) was “Dose-Dependent Effect”. The Activity (CT26 [19]) was 60%, the TGI (CT26 [20]) was 67% and the Activity (CT26 [21]) was “Active”. The Activity (CT26 [22]) was “Active”, the Activity (CT26 [23]) was “Active” and the Activity (CT26 [24]) was “Active”. The inhibition in vivo at 40 mg/kg (CT26 [25]) was 57%, the Activity [26] was “Non-Toxic” and the Activity (MDA-MB-231 [27]) was “inactive”. The Activity [28] was “Non-Toxic” and the Activity [29] was “Non-Toxic”.

Work on `COc1nc(-c2cccc(-c3ccccc3)c2C)ccc1CN[C@H](C)CO` yielded an IC50 [1] of 5 nM.

`COc1nc(-c2cccc(-c3ccccc3)c2C)ccc1CN[C@@H](CO)C(=O)O` showed an IC50 [1] of 17 nM.

With `Cc1c(-c2ccccc2)cccc1-c1ccc(CNCCO)cn1` the IC50 [1] was 34.6 nM.

`COc1nc(OCc2cccc(-c3ccccc3)c2C)ccc1CNCCNC(C)=O` showed an Activity (MDA-MB-231 [30]) of 44% and an inhibition in vivo at 40 mg/kg (CT26 [25]) of 32%.

In the case of `COc1cccc(-c2cccc(-c3ccc(CNCCO)c(OC)n3)c2C)c1`, the IC50 [1] is reported as 12.6 nM.

`Cc1c(-c2ccccc2)cccc1-c1cc(CNCCO)ccn1` showed an IC50 [1] of 131 nM.

Work on `COc1nc(-c2cccc(-c3ccc4c(c3)OCCO4)c2C)ccc1CNCCN` yielded an IC50 [1] of 16.7 nM.

`COc1nc(-c2cccc(-c3ccccc3)c2C)ccc1CNCCCO` gave an IC50 [1] of 7.4 nM.

`COc1nc(-c2cccc(-c3ccccc3)c2C)ccc1C(=O)NCCO` showed an IC50 [1] of 327 nM.

`COc1nc(-c2cccc(-c3ccccc3)c2C)ccc1CNC[C@@H]1CCC(=O)N1` showed an IC50 [1] of 14.2 nM.

For `CC(=O)NCCNCc1ccc(-c2cccc(-c3ccccc3)c2C)nc1`, the IC50 [1] was 52.8 nM.

`COc1nc(-c2cccc(-c3ccc4c(c3)OCO4)c2C)ccc1CNCCO` gave an IC50 [1] of 13.2 nM.

Work on `COc1nc(-c2cccc(-c3ccccc3)c2C)ccc1CNCCNC(C)=O` yielded an IC50 [1] of 14.4 nM.

Compound `COc1nc(-c2cccc(-c3ccc4c(c3)OCCO4)c2C)ccc1CN[C@@H](CO)C(=O)O` has an IC50 [1] of 10.4 nM.

With `COc1nc(-c2cccc(-c3ccccc3)c2C)ccc1CN1CC[C@@H](O)C1` the IC50 [1] was 8.5 nM.

Work on `COc1nc(-c2cccc(-c3ccccc3)c2C)ccc1CNCCN` yielded an IC50 [1] of 20.8 nM.

With `COc1nc(-c2cccc(-c3ccccc3)c2C)ccc1CN(C)CCO` the IC50 [1] was 8.4 nM.

With `COc1nc(-c2cccc(-c3ccc4c(c3)OCCO4)c2C)ccc1CNCCNC(C)=O` the IC50 [1] was 14.1 nM.

`COC(=O)c1ccc(-c2cccc(-c3ccccc3)c2C)nc1OC` gave an IC50 [1] of 326 nM.
